{"source": "ChEMBL document CHEMBL1151342", "about": "“Psorospermin, a new antileukemic xanthone from Psorospermum febrifugum” (1980)", "format_in_all_cases": "functional", "key": {"Echinoidea": {"system": "Echinoidea", "experiment": "Inhibition of mitosis in sea urchin egg at 1 uM"}, "P388": {"system": "P388", "experiment": "In vivo antitumor activity against mouse P388 cells at 8 mg/kg"}, "KB": {"system": "KB", "experiment": "Cytotoxicity against human KB cells", "settings": "read-out: ED50 (the source's name)"}}, "note": "Active and inactive are the calls of the source. No cut-off for these calls is given here."}
{"smiles": "COc1cc2c(c3oc4c(O)cccc4c(=O)c13)C[C@H]([C@@]1(C)CO1)O2", "note": "[PSOROSPERMIN]", "values": [{"measurement": "Activity", "setting": "Echinoidea", "value": "Active"}, {"measurement": "T/C", "setting": "P388", "value": 158, "unit": "%"}, {"measurement": "EC50", "setting": "KB", "value": 0.1, "unit": "µg/mL"}]}
